Laboratory results from patent publication US10597388B2, “Pyridazinone herbicides” (FMC CORPORATION, priority 2014, dated 2020).

How the values were obtained:
Test in all cases: Test D controlled growth environment herbicide test, pre- and postemergence
Type in all cases: in vivo
[1] = test system: deadnettle (henbit deadnettle, Lamium amplexicaule)
Excerpt: (§1) Seeds of plant species selected from bluegrass (annual bluegrass, Poa annua), blackgrass (Alopecurus myosuroides), Canada thistle (Cirsium arvense), canarygrass (Phalaris minor), chickweed (common chickweed, Stellaria media), geranium, cutleaf (cutleaf geranium, Geranium dissectum), galium (catchweed bedstraw, Galium aparine), bromegrass, downy (downy bromegrass, Bromus tectorum), field poppy (Papaver rhoeas), field violet (Viola arvensis), foxtail, green (green foxtail, Setaria viridis), deadnettle (henbit deadnettle, Lamium amplexicaule), ryegrass, Italian (Italian ryegrass, Lolium multiflorum), kochia (Kochia scoparia), lambsquarters (Chenopodium album), oilseed rape (Brassica napus), pigweed (Amaranthus retroflexus), chamomile (scentless chamomile, Matricaria inodora), Russian thistle (Salsola kali), speedwell (bird's-eye speedwell, Veronica persica), barley, spring (spring barley, Hordeum vulgare), wheat, spring (spring wheat, Triticum aestivum), buckwheat, wild (wild buckwheat, Polygonum convolvulus), mustard, wild (wild mustard, Sinapis arvensis), oat, wild (wild oat, Avena fatua), radish, wild (wild radish, Raphanus raphanistrum), windgrass (Apera spica-venti), barley, winter (winter barley, Hordeum vulgare), and wheat, winter (winter wheat, Triticum aestivum) were planted into a silt loam soil and treated preemergence with test chemicals formulated in a non-phytotoxic solvent mixture which included a surfactant.
(§2) At the same time, these species were planted in pots containing Redi-Earth® planting medium (Scotts Company, 14111 Scottslawn Road, Marysville, Ohio 43041) comprising spaghnum peat moss, vermiculite, wetting agent and starter nutrients and treated with postemergence applications of the test chemicals formulated in the same manner. Plants ranged in height from 2 to 18 cm (1- to 4-leaf stage). Treated plants and controls were maintained in a controlled growth environment for 14 to 21 d after which time all species were compared to controls and visually evaluated. Plant response ratings, summarized in Table D, are based on a scale of 0 to 100 where 0 is no effect and 100 is complete control. A dash (-) response means no test result.

[2] = test system: blackgrass (Alopecurus myosuroides)
Excerpt: as §1, §2

[3] = test system: field poppy (Papaver rhoeas)
Excerpt: as §1, §2

[4] = test system: Russian thistle (Salsola kali)
Excerpt: as §1, §2

[5] = test system: wheat, spring (spring wheat, Triticum aestivum)
Excerpt: as §1, §2

[6] = test system: chickweed (common chickweed, Stellaria media)
Excerpt: as §1, §2

[7] = test system: wheat, winter (winter wheat, Triticum aestivum)
Excerpt: as §1, §2

[8] = test system: oilseed rape (Brassica napus)
Excerpt: as §1, §2

[9] = test system: windgrass (Apera spica-venti)
Excerpt: as §1, §2

[10] = test system: radish, wild (wild radish, Raphanus raphanistrum)
Excerpt: as §1, §2

[11] = test system: ryegrass, Italian (Italian ryegrass, Lolium multiflorum)
Excerpt: as §1, §2

[12] = test system: pigweed (Amaranthus retroflexus)
Excerpt: as §1, §2

[13] = test system: field violet (Viola arvensis)
Excerpt: as §1, §2

[14] = Postemergence, 31 g ai/ha, scale 0 to 100 (0 no effect, 100 complete control)
[15] = Postemergence, 125 g ai/ha, visual rating on scale 0 (no effect) to 100 (complete control), 14 to 21 d
[16] = Postemergence, 250 g ai/ha, scale 0 to 100 (0 no effect, 100 complete control)
[17] = Preemergence, 62 g ai/ha, scale 0 to 100 (0 no effect, 100 complete control)
[18] = Preemergence, 125 g ai/ha, scale 0 to 100 (0 no effect, 100 complete control)
[19] = Preemergence, 250 g ai/ha, scale 0 to 100 (0 no effect, 100 complete control)
[20] = postemergence, 62 g ai/ha, scale 0 to 100, 0 no effect, 100 complete control

## CC(=O)Oc1c(C)nn(C)c(=O)c1-c1c(C)sc2ccc(C)cc12 [Compound 25]
[1]; [14]
  Deadnettle plant response rating: 5
[1]; [15]
  Plant response rating, Deadnettle: 20
[1]; [16]
  Plant response rating, Deadnettle: 45
[1]; Preemergence, 31 g ai/ha
  Plant response rating (scale of 0 to 100), Deadnettle: 0
[1]; [17]
  Plant response rating, Deadnettle: 0
[1]; [18]
  Plant response rating, Deadnettle: 0
[1]; [19]
  Plant response rating, Deadnettle: 50
[1]; [20]
  Plant response rating, Deadnettle: 10
[2]; [14]
  Blackgrass plant response rating: 65
[2]; [15]
  Plant response rating, Blackgrass: 80
[2]; [16]
  Plant response rating, Blackgrass: 80
[2]; Preemergence, 31 g ai/ha
  Plant response rating (scale of 0 to 100), Blackgrass: 85
[2]; [17]
  Plant response rating, Blackgrass: 90
[2]; [18]
  Plant response rating, Blackgrass: 90
[2]; [19]
  Blackgrass plant response rating: 95
[2]; [20]
  Plant response rating, Blackgrass: 75
[3]; [14]
  Field Poppy plant response rating: 70
[3]; [15]
  Plant response rating, Field Poppy: 100
[3]; [16]
  Plant response rating, Field Poppy: 100
[3]; Preemergence, 31 g ai/ha
  Plant response rating (scale of 0 to 100), Field Poppy: 95
[3]; [17]
  Plant response rating, Field Poppy: 100
[3]; [18]
  Plant response rating, Field Poppy: 100
[3]; [19]
  Plant response rating, Field Poppy: 100
[3]; [20]
  Plant response rating, Field Poppy: 80
[4]; [14]
  Russian Thistle plant response rating: 70
[4]; [15]
  Plant response rating, Russian Thistle: 80
[4]; [16]
  Plant response rating, Russian Thistle: 90
[4]; Preemergence, 31 g ai/ha
  Plant response rating (scale of 0 to 100), Russian Thistle: 10
[4]; [17]
  Plant response rating, Russian Thistle: 25
[4]; [18]
  Plant response rating, Russian Thistle: 40
[4]; [19]
  Plant response rating, Russian Thistle: 90
[4]; [20]
  Plant response rating, Russian Thistle: 75
[5]; [14]
  Wheat, Spring plant response rating: 0
[5]; [15]
  Plant response rating, Wheat, Spring: 15
[5]; [16]
  Plant response rating, Wheat, Spring: 20
[5]; Preemergence, 31 g ai/ha
  Plant response rating (scale of 0 to 100), Wheat, Spring: 0
[5]; [17]
  Plant response rating, Wheat, Spring: 0
[5]; [18]
  Plant response rating, Wheat, Spring: 10
[5]; [19]
  Plant response rating, Wheat, Spring: 25
[5]; [20]
  Plant response rating, Wheat, Spring: 0
[6]; [14]
  Chickweed plant response rating: 98
[6]; [15]
  Plant response rating, Chickweed: 100
[6]; [16]
  Plant response rating, Chickweed: 100
[6]; Preemergence, 31 g ai/ha
  Plant response rating (scale of 0 to 100), Chickweed: 95
[6]; [17]
  Plant response rating, Chickweed: 100
[6]; [18]
  Plant response rating, Chickweed: 100
[6]; [19]
  Plant response rating, Chickweed: 100
[6]; [20]
  Plant response rating, Chickweed: 98
[7]; [14]
  Wheat, Winter plant response rating: 0
[7]; [15]
  Plant response rating, Wheat, Winter: 5
[7]; [16]
  Plant response rating, Wheat, Winter: 20
[7]; Preemergence, 31 g ai/ha
  Plant response rating (scale of 0 to 100), Wheat, Winter: 0
[7]; [17]
  Plant response rating, Wheat, Winter: 0
[7]; [18]
  Plant response rating, Wheat, Winter: 0
[7]; [19]
  Plant response rating, Wheat, Winter: 20
[7]; [20]
  Plant response rating, Wheat, Winter: 0
[8]; [14]
  Oilseed Rape plant response rating: 5
[8]; [15]
  Plant response rating, Oilseed Rape: 45
[8]; [16]
  Plant response rating, Oilseed Rape: 60
[8]; Preemergence, 31 g ai/ha
  Plant response rating (scale of 0 to 100), Oilseed Rape: 0
[8]; [17]
  Plant response rating, Oilseed Rape: 0
[8]; [18]
  Plant response rating, Oilseed Rape: 0
[8]; [19]
  Plant response rating, Oilseed Rape: 35
[8]; [20]
  Plant response rating, Oilseed Rape: 30
[9]; [14]
  Windgrass plant response rating: 70
[9]; [15]
  Plant response rating, Windgrass: 85
[9]; [16]
  Plant response rating, Windgrass: 85
[9]; Preemergence, 31 g ai/ha
  Plant response rating (scale of 0 to 100), Windgrass: 75
[9]; [17]
  Plant response rating, Windgrass: 85
[9]; [18]
  Plant response rating, Windgrass: 100
[9]; [19]
  Plant response rating, Windgrass: 100
[9]; [20]
  Plant response rating, Windgrass: 75
[10]; [14]
  Radish, Wild plant response rating: 15
[10]; [15]
  Plant response rating, Radish, Wild: 65
[10]; [16]
  Plant response rating, Radish, Wild: 75
[10]; Preemergence, 31 g ai/ha
  Plant response rating (scale of 0 to 100), Radish, Wild: 0
[10]; [17]
  Plant response rating, Radish, Wild: 0
[10]; [18]
  Plant response rating, Radish, Wild: 0
[10]; [19]
  Plant response rating, Radish, Wild: 0
[10]; [20]
  Plant response rating, Radish, Wild: 35
[11]; [14]
  Ryegrass, Italian plant response rating: 75
[11]; [15]
  Plant response rating, Ryegrass, Italian: 85
[11]; [16]
  Plant response rating, Ryegrass, Italian: 90
[11]; Preemergence, 31 g ai/ha
  Plant response rating (scale of 0 to 100), Ryegrass, Italian: 95
[11]; [17]
  Plant response rating, Ryegrass, Italian: 100
[11]; [18]
  Plant response rating, Ryegrass, Italian: 100
[11]; [19]
  Plant response rating, Ryegrass, Italian: 100
[11]; [20]
  Plant response rating, Ryegrass, Italian: 85
[12]; [14]
  Pigweed plant response rating: 80
[12]; [15]
  Plant response rating, Pigweed: 95
[12]; [16]
  Plant response rating, Pigweed: 100
[12]; Preemergence, 31 g ai/ha
  Plant response rating (scale of 0 to 100), Pigweed: 100
[12]; [17]
  Plant response rating, Pigweed: 100
[12]; [18]
  Plant response rating, Pigweed: 100
[12]; [19]
  Plant response rating, Pigweed: 100
[12]; [20]
  Plant response rating, Pigweed: 100
[13]; [14]
  Field Violet plant response rating: 65
[13]; [15]
  Plant response rating, Field Violet: 85
[13]; [16]
  Plant response rating, Field Violet: 95
[13]; Preemergence, 31 g ai/ha
  Plant response rating (scale of 0 to 100), Field Violet: 90
[13]; [17]
  Plant response rating, Field Violet: 100
[13]; [18]
  Plant response rating, Field Violet: 100
[13]; [19]
  Plant response rating, Field Violet: 100
[13]; [20]
  Plant response rating, Field Violet: 75
